A short description of data set [1]: Chemical stability (degradation kinetics) in acidic aqueous media, HPLC recovery rate. The format is physicochemical. The following applies: pH value of ca. 1.2, acetonitrile/0.1 M aqueous HCl (2:3), 37° C. Here is the method: Degradation kinetics is used to simulate chemical stability of compounds in the acidic part of the gastro intestinal tract.
The chemical stability of the compounds of the invention at pH value of ca. 1.2 is determined as follows:
Compound is dissolved in an HPLC vial either in a mixture of acetonitrile/0.1 M aqueous HCl (2:3; pH ca. 1.2) or in a mixture of acetonitrile/McIlvaine buffer pH 7.4 (2:3) to get a concentration of approximately 0.25 mg/ml. The vial was then transferred into an HPLC autosampler system and maintained at a temperature of 37° C. A first sample is taken and injected immediately into a standard HPLC system with a UV DAD detector. Further samples are injected after 2, 4, 6, 8 and 10 hours. Degradation of the compound is measured by determining the recovery rate of compound [%] for each injection using an HPLC standard gradient method. Therefore the peak area of the main peak for the first injection (AUt0) is determined and set as 100%. Peak area of the main peak is determined also for the further injections (AUtn, n=2, 4, 6, 8, 10) and expressed as fraction of […] [%].

In a further data set the target is human GPR40 receptor (Homo sapiens (Human), UniProt O14842). Put plainly: IP1 accumulation measurements using the IPOne assay system. The format is cell-based. The following applies: 1321N1 cells stably expressing human GPR40 receptor, 1 h stimulation. Here is the method:
IP1 accumulation measurements using the IPOne assay system—1321N1 cells stably expressing human GPR40 receptor (Euroscreen, Belgium) are seeded 24 h before the assay in white 384-well plates in culture medium containing 10% FCS, 1% Na-Pyruvate and 400 μg/mL G418. IP1 is assayed according to the manufacturer's description (Cisbio Bioassays, France). In brief, the assay is started by substitution of the culture medium by stimulation buffer (Hepes 10 mM, CaCl2 1 mM, MgCl2 0.5 mM, KCl 4.2 mM, NaCl 146 mM, glucose 5.5 mM and LiCl 50 mM, pH 7.4). Cells are stimulated for 1 h at 37° C., 5% CO2 by addition of the compounds that are diluted in stimulation buffer containing LiCl. Assays are stopped by adding HTRF-conjugates (IP1-d2 and Anti-IP1 cryptate Tb) and lysis buffer, provided by the manufacturer. After an incubation time of 1 h at room temperature plates are measured using an EnVision™, Perkin Elmer. The obtained fluorescence ratios at 665/615 […] are then used to calculate the pEC50 values using Assay Explorer 3.3 Software (Accelrys, Inc.) by interpolation using an IP1 reference curve and subsequent sigmoidal curve fitting allowing for a variable hill slope.

The structures appear in SMILES notation. A value given as a limit tells only on which side of the number the result lay.

The term EC50 denotes the midpoint of the concentration-response curve. Lower therefore signals an effect from little substance.

Chain of human GPR40 receptor (O14842 whole entry): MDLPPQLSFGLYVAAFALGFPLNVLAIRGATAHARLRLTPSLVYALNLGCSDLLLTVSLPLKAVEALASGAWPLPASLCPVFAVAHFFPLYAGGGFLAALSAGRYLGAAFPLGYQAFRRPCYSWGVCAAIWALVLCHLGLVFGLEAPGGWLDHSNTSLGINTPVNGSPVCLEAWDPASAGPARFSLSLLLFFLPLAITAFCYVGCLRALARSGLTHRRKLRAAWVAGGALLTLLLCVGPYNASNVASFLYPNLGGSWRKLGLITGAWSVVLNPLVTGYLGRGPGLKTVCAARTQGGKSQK

For the compound `CC(=O)Nc1cccc(Oc2ccc(F)c3c2CC[C@H]3Oc2ccc3c(c2)OC[C@H]3CC(=O)O)c1` [Example 6, {(S)-6-[(R)-4-(3-Acetylamino-phenoxy)-7-fluoro-indan-1-yloxy]-2,3-dihydro-benzofuran-3-yl}-acetic acid], the “Recovery rate after 2 h” value in data set [1] is above 98%. Further, on human GPR40 receptor, the midpoint of the response, the EC50, lay at 8 nM.
`O=C(O)C[C@@H]1COc2cc(O[C@@H]3CCc4c(Oc5ccc6c(c5)CCO6)ccc(F)c43)ccc21` [Example 11, {(S)-6-[(R)-4-(2,3-Dihydro-benzofuran-5-yloxy)-7-fluoro-indan-1-yloxy]-2,3-dihydro-benzofuran-3-yl}-acetic acid]: the “Recovery rate after 2 h” value in data set [1] was 96.5%. Besides, the 50% effective concentration (EC50) at human GPR40 receptor was 6 nM.
For `CCNC(=O)c1ccc(Oc2ccc(F)c3c2CC[C@H]3Oc2ccc3c(c2)OC[C@H]3CC(=O)O)cc1` [Example 12, {(S)-6-[(R)-4-(4-Ethylcarbamoyl-phenoxy)-7-fluoro-indan-1-yloxy]-2,3-dihydro-benzofuran-3-yl}-acetic acid], the “Recovery rate after 2 h” value in data set [1] is above 99%. For the same compound, the half-maximal effective concentration (EC50) on human GPR40 receptor is 18 nM.
As to `O=C(O)C[C@@H]1COc2cc(OC3CCc4ccccc43)ccc21` (some centres unmarked) [XX, reference compound], the “Recovery rate after 2 h” value in data set [1] is recorded as below 5%.
For `CC(C)c1cccc2c1CC[C@H]2Oc1ccc2c(c1)OC[C@H]2CC(=O)O` [XXI, reference compound], the “Recovery rate after 2 h” value in data set [1] is reported as below 5%.
For the compound `O=C(O)C[C@@H]1COc2cc(O[C@@H]3CCc4c(Oc5ccc(C(=O)N6CCCC6)cc5)ccc(F)c43)ccc21` [Example 9, [(S)-6-{(R)-7-Fluoro-4-[4-(pyrrolidine-1-carbonyl)-phenoxy]-indan-1-yloxy}-2,3-dihydro-benzofuran-3-yl]-acetic acid], the “Recovery rate after 2 h” value in data set [1] is above 99%. This compound registered an EC50 on human GPR40 receptor of 18 nM.
On to `CC(C)(O)COc1ccc(Oc2ccc(F)c3c2CC[C@H]3Oc2ccc3c(c2)OC[C@H]3CC(=O)O)cc1` [Example 3, [(S)-6-{(R)-7-Fluoro-4-[4-(2-hydroxy-2-methyl-propoxy)-phenoxy]-indan-1-yloxy}-2,3-dihydro-benzofuran-3-yl]-acetic acid], for which the “Recovery rate after 2 h” value in data set [1] is recorded as 97.5%. Further, a half-maximal effect on human GPR40 receptor (EC50) was put at 13 nM.
In the case of `COCCOc1ccc(Oc2ccc(F)c3c2CC[C@H]3Oc2ccc3c(c2)OC[C@H]3CC(=O)O)cc1` [Example 1, [(S)-6-{(R)-7-Fluoro-4-[4-(2-methoxy-ethoxy)-phenoxy]-indan-1-yloxy}-2,3-dihydro-benzofuran-3-yl]-acetic acid], the “Recovery rate after 2 h” value in data set [1] was determined as 97.5%. The compound further yielded a concentration for a half-maximal effect (EC50) at human GPR40 receptor of 7 nM.
`O=C(O)C[C@@H]1COc2cc(O[C@@H]3CCc4c(Oc5ccc(-c6nccs6)cc5)ccc(F)c43)ccc21` [Example 21, {(S)-6-[(R)-7-Fluoro-4-(4-thiazol-2-yl-phenoxy)-indan-1-yloxy]-2,3-dihydro-benzofuran-3-yl}-acetic acid] gave an EC50 at human GPR40 receptor of 6 nM.
`CC(=O)Nc1ccc(Oc2ccc(F)c3c2CC[C@H]3Oc2ccc3c(c2)OC[C@H]3CC(=O)O)cc1` [Example 8, {(S)-6-[(R)-4-(4-Acetylamino-phenoxy)-7-fluoro-indan-1-yloxy]-2,3-dihydro-benzofuran-3-yl}-acetic acid] yielded an EC50 on human GPR40 receptor of 34 nM.
The compound `O=C(O)C[C@@H]1COc2cc(O[C@@H]3CCc4c(Oc5ccc(OC6CCOCC6)cc5F)ccc(F)c43)ccc21` [Example 50, ((S)-6-{(R)-7-Fluoro-4-[2-fluoro-4-(tetrahydro-2H-pyran-4-yloxy)phenoxy]-indan-1-yloxy}-2,3-dihydrobenzofuran-3-yl)-acetic acid] came in with an EC50 at human GPR40 receptor of 4 nM. Against the preceding compound, the EC50 is about 8.5-fold lower.
In turn, `O=C(O)C[C@@H]1COc2cc(O[C@@H]3CCc4c(Oc5ccc(-n6ccnc6)cc5)ccc(F)c43)ccc21` [Example 10, {(S)-6-[(R)-7-Fluoro-4-(4-imidazol-1-yl-phenoxy)-indan-1-yloxy]-2,3-dihydro-benzofuran-3-yl}-acetic acid] yielded a concentration for a half-maximal effect (EC50) on human GPR40 receptor of 11 nM.
The compound `O=C(O)C[C@@H]1COc2cc(O[C@@H]3CCc4c(Oc5ccc6c(c5)NC(=O)CC6)ccc(F)c43)ccc21` [Example 24, {(S)-6-[(R)-7-Fluoro-4-(2-oxo-1,2,3,4-tetrahydroquinoline-7-yloxy)-indan-1-yloxy]-2,3-dihydrobenzofuran-3-yl}-acetic acid] had an EC50 at human GPR40 receptor of 10 nM.
Consider `CS(=O)(=O)CCCOc1ccc(Oc2ccc(F)c3c2CC[C@H]3Oc2ccc3c(c2)OC[C@H]3CC(=O)O)cc1` [Example 4, [(S)-6-{(R)-7-Fluoro-4-[4-(3-methanesulfonyl-propoxy)-phenoxy]-indan-1-yloxy}-2,3-dihydro-benzofuran-3-yl)-acetic acid], for which, on human GPR40 receptor, the response was half-maximal at 15 nM (EC50). Against the preceding compound, the EC50 is about 1.5-fold higher.
In turn, `CC(C)(O)CCn1ncc2ccc(Oc3ccc(F)c4c3CC[C@H]4Oc3ccc4c(c3)OC[C@H]4CC(=O)O)cc21` [Example 36, ((S)-6-{(R)-7-Fluoro-4-[1-(3-hydroxy-3-methylbutyl)-1H-indazol-6-yloxy]-indan-1-yloxy}-2,3-dihydrobenzofuran-3-yl)-acetic acid] registered an EC50 at human GPR40 receptor of 8 nM.
For the compound `O=C(O)C[C@@H]1COc2cc(O[C@@H]3CCc4c(Oc5ccc6c(c5)OCCO6)ccc(F)c43)ccc21` [Example 26, {(S)-6-[(R)-4-(2,3-Dihydrobenzo[b][1,4]dioxin-6-yloxy)-7-fluoro-indan-1-yloxy]-2,3-dihydrobenzofuran-3-yl}-acetic acid], the 50% effective concentration (EC50) on human GPR40 receptor came to 6 nM.
Same read-out and setting: next, `O=C(O)C[C@@H]1COc2cc(O[C@@H]3CCc4c(Oc5ccc(N6CCCC6=O)cc5)ccc(F)c43)ccc21` [Example 58, ((S)-6-{(R)-7-Fluoro-4-[4-(2-oxopyrrolidin-1-yl)phenoxy]-indan-1-yloxy}-2,3-dihydrobenzofuran-3-yl)-acetic acid]: 18 nM; `O=C(O)C[C@@H]1COc2cc(O[C@@H]3CCc4c(Oc5ccc(CN6CCCC6)cc5)ccc(F)c43)ccc21` [Example 59, ((S)-6-{(R)-7-Fluoro-4-[4-(pyrrolidin-1-ylmethyl)phenoxy]-indan-1-yloxy}-2,3-dihydrobenzofuran-3-yl)-acetic acid]: 216 nM.
In the case of `CC(C)(O)CCOc1ccc(Oc2ccc(F)c3c2CC[C@H]3Oc2ccc3c(c2)OC[C@H]3CC(=O)O)cc1` [Example 2, [(S)-6-{(R)-7-Fluoro-4-[4-(3-hydroxy-3-methyl-butoxy)-phenoxy]-indan-1-yloxy}-2,3-dihydro-benzofuran-3-yl]-acetic acid], the “Recovery rate after 2 h” value in data set [1] was above 98%. Further, at human GPR40 receptor, the EC50 turned out to be 5 nM.
